Literature values in patent US12514906B2, “Use of C-type natriuretic peptide variants to treat skeletal dysplasia” (BIOMARIN PHARMACEUTICAL INC., priority 2015, dated 2026).
Where no end group is shown, it is not given here.

Tests used:
NPR-B = conditions: CNP-53 compared with CNP-22
cGMP production = conditions: CNP-53 compared with CNP-22

| binding to NPR-B (NPR-B) | Substance | induction of cGMP production (cGMP production) | plasma half-life (in vivo in humans) [min] | in vivo half-life (normal human) [min] |
| --- | --- | --- | --- | --- |
| bind similarly | CNP-53: active 53-amino acid peptide generated from pro-CNP by furin cleavage (DLRVDTKSRAAWARLLQEHPNARKYKGANKKGLSKGCFGLKLDRIGSMSGLGC; ends and bridges not checked; cysteine pairing not given here; UniProt P23582 74-126, looked up) | dose-dependent and similar fashion | – | – |
| bind similarly | CNP: mature 22-amino acid wild type C-type natriuretic peptide | dose-dependent and similar fashion | 2.6 | 2.6 |
